What was measured:
Format in all cases: in vivo
[1] = tested on: KK-Ay/Ta Jcl mice of a type 2 diabetic model; assay: Example 1: serum-insulin level after 18 hours fasting in mice fed CE-2 feed with 1% by weight of test substance
From the text: (§1) KK-Ay/Ta Jcl mice (Clea Japan, Inc.; male; six weeks age) (15 mice) of a type 2 diabetic model were divided into three groups each comprising five mice and named group 1 to group 3.
(§2) The mice of the groups 1 to 3 were made free to take feed and water. A commercially available feed CE-2 (manufactured by Clea Japan, Inc.) was ingested to the mice of group 1. CE-2 to which 1% by weight of trans-4-hydroxy-L-proline (manufactured by Kyowa Hakko Kogyo; hereinafter, abbreviated as hydroxyproline) was added was ingested to the mice of group 2. CE-2 to which 1% by weight of trans-N-acetyl-4-hydroxy-L-proline (manufactured by Kyowa Hakko Kogyo; hereinafter, abbreviated as N-acetylhydroxyproline) was added was ingested to the mice of group 3.
(§3) On the initial day of the test and on the 17th day thereafter, blood was collected from tail vein and blood-sugar level upon non-fasting was measured by a Medisafe Reader GR-101 (manufactured by Thermo Co.). The mice were fasted for 18 hours during the 17th day to the 18th day after the start of the test and whole blood was collected from descending vena cava to prepare serum. The serum-insulin level was measured by a Levi Insulin Kit Mouse-T (manufactured by Shibayagi). The value was shown by mean value±standard error (n=5) and statistic ratio of risk (p value) was determined by a t-test. With regard to the ingested amounts during the test periods, there was no significant difference among the groups 1 to 3.

[2] = tested on: KK-Ay/Ta Jcl mice of a type 2 diabetic model; assay: Example 1: non-fasting blood-sugar level in mice fed CE-2 feed with 1% by weight of test substance
From the text: as §1, §2, §3

[3] = tested on: GK/Jcl rats of a type 2 diabetic model; assay: Example 5: blood-sugar level after oral glucose load in fasted rats; settings: for Blood-Sugar Level, 30 min: 30 minutes after glucose 2 g/kg; for Blood-Sugar Level, 30 min / Blood-Sugar Level, −30 min / Blood-Sugar Level, 60 min / Blood-Sugar Level, 120 min / Blood-Sugar Level, 0 min: n=6; for Blood-Sugar Level, −30 min: 30 minutes before glucose 2 g/kg (baseline, at dosing), mean ± standard error; for Blood-Sugar Level, 60 min: 60 minutes after glucose 2 g/kg; for Blood-Sugar Level, 120 min: 120 minutes after glucose 2 g/kg; for Blood-Sugar Level, 0 min: upon glucose administration 2 g/kg
Procedure: GK/Jcl rats (Clea Japan, Inc.; male; nine weeks age) (18 mice) of a type 2 diabetic model were divided into three groups each comprising six mice and named groups 1 to 3.
After fasting for 18 hours, 5 ml/kg B.W. of a solvent (0.5% (w/v) methyl cellulose #400) was orally administered to the rats of the group 1. A 60 mg/ml solution of the hydroxyproline in the same solvent was orally administered to the rats of the group 2 so as to make the amount of administration 300 mg/kg B.W. A 200 mg/ml solution of the hydroxyproline in the same solvent was orally administered to the rats of the group 3 so as to make the amount of administration 1,000 mg/kg B.W. After 30 minutes from the oral administration, 2 g/kg B.W. of a 20% (w/v) aqueous solution of glucose was orally administered to the mice of the groups 1 to 3 to load with sugar. Blood was collected from tail vein 30 minutes before the administration of the aqueous glucose solution (−30 minutes), upon the administration (0 minute) and 30 minutes, 60 minutes and 120 minutes after the administration and blood-sugar levels were measured by a Medisafe Reader GR-101.
The value was shown by mean value±standard error (n=6) and statistic ratio of risk (p value) between the groups 1 and 2 and that between the groups 1 and 3 was determined by a one-way layout dispersion analysis and by a Dunnett test.

[4] = tested on: GK/Jcl rats of a type 2 diabetic model; assay: Example 4: blood-sugar level after single oral administration in rats; settings: 1,000 mg/kg B.W. oral
Procedure: GK/Jcl rats (Clea Japan, Inc; male; nine weeks age) (12 mice) of a type 2 diabetic model were divided into two groups each comprising six mice and named group 1 and group 2.
Five ml/kg B.W. of a solvent (0.5% (w/v) methyl cellulose #400) was orally administered to the rats of the group 1. A 200 mg/ml solution of the hydroxyproline in the same solvent was orally administered to the rats of the group 2 so as to make the amount of administration 1,000 mg/kg B.W. Blood was collected from tail vein upon administration of the solvent or the hydroxyproline solution (0 minute) and 30 minutes, 60 minutes and 120 minutes after the administration and blood-sugar levels were measured by a Medisafe Reader GR-101. The value was shown by mean value±standard error (n=6) and statistic ratio of risk (p value) was determined by a t-test.

## O=C(O)[C@@H]1C[C@@H](O)CN1 [hydroxyproline, trans-4-hydroxy-L-proline]
[1]
  antidiabetic action by improving insulin resistance (conclusion from Tables 1 and 2): show an antidiabetic action by improving the insulin resistance
[1]; 18th day after 18 hours fasting, mean ± standard error, n=5
  Serum-Insulin Level: 1.01 ± 0.08 ng/mL
[2]; 17 days
  antidiabetic action (conclusion from Table 1): antidiabetic action
[2]; non-fasting, tail vein blood, 17th day, mean ± standard error, n=5
  Blood-Sugar Level, 17th Day of the Test: 260.4 ± 10.8 mg/dL
[2]; non-fasting, tail vein blood, initial day (baseline), mean ± standard error, n=5
  Blood-Sugar Level, Initial Day of the Test: 243.0 ± 12.2 mg/dL
[3]; 300 mg/kg B.W. oral
  Blood-Sugar Level, 30 min: 269.5 ± 15.3 mg/dL
  Blood-Sugar Level, −30 min: 113.3 ± 2.7 mg/dL
  Blood-Sugar Level, 60 min: 298.2 ± 7.5 mg/dL
  Blood-Sugar Level, 120 min: 207.5 ± 6.3 mg/dL
  Blood-Sugar Level, 0 min: 144.2 ± 7.2 mg/dL
[3]; 1,000 mg/kg B.W. oral
  Blood-Sugar Level, 30 min: 226.2 ± 3.0 mg/dL
  Blood-Sugar Level, −30 min: 112.2 ± 3.3 mg/dL
  Blood-Sugar Level, 60 min: 247.3 ± 4.4 mg/dL
  Blood-Sugar Level, 120 min: 181.2 ± 7.3 mg/dL
  Blood-Sugar Level, 0 min: 137.0 ± 6.6 mg/dL
[3]; 300 and 1,000 mg/kg B.W. oral, glucose load
  antidiabetic action (conclusion from Table 7): dose-dependent antidiabetic-action
[4]
  antidiabetic action (conclusion from Table 6): antidiabetic action
[4]; 30 minutes after administration, mean ± standard error, n=6
  Blood-Sugar Level, 30 min: 220.3 ± 13.8 mg/dL
[4]; 60 minutes after administration, mean ± standard error, n=6
  Blood-Sugar Level, 60 min: 189.5 ± 10.9 mg/dL
[4]; 120 minutes after administration, mean ± standard error, n=6
  Blood-Sugar Level, 120 min: 156.0 ± 6.8 mg/dL
[4]; upon administration (baseline), mean ± standard error, n=6
  Blood-Sugar Level, 0 min: 189.2 ± 8.4 mg/dL
